Data from patent US20250170132A1, “SALTS AND POLYMORPHIC FORMS OF MENIN INHIBITORS AND PHARMACEUTICAL COMPOSITIONS THEREOF” (Syndax Pharmaceuticals, Inc., priority 2023, published 2025).

Legend:
Format in all cases: physicochemical
[1] = Approximate solubility estimation in 24 solvents; conditions: thermodynamic from solid
Protocol: About 10 mg of Compound A monocitrate monohydrate was weighed into a 4.0 mL vial and 25 μL of solvent was added at RT. The solution was shaken and stirred. If no clear solution was obtained, another 25 μL was added and this was repeated until 4.0 mL solvent is added.

[2] = Solution stability studies at accelerated conditions (counterion-related degradation; Impurity A formation vs temperature, pH, time)
From the text: FIG. 32 depicts Impurity A formation as a function of temperature, pH, and time in solution.
Compound A monocitrate monohydrate has at least two advantageously and unexpected characteristics. Both alone and in comparison, with Compound A salts known in the art (e.g. Compound A fumarate salts). […] Second, in the manufacturing process, Compound A fumarate requires a separate slurrying step which results in a solvate with an organic solvent. Compound A monocitrate monohydrate salt is isolated directly from ethanol:water, no slurrying step is required. […] Additionally, the Compound A monocitrate forms a monohydrate instead of a solvate with one or more organic molecules.

[3] = Polymorph screen: slurry at 50° C.; conditions: slurry 50° C.
Protocol: X-ray powder diffraction (XRPD) • Instrument: Panalytical Empyrean • Parameters: X-Ray tube Cu (Kα radiation); Power: 45 kV×40 mA • Scanning range: 2 to 40 2θ (degree) • Step size: 0.01 degree • Scanning speed: 6.33 degree (20) per minute Thermogravimetric analysis (TGA) • Instrument: TA Instruments Discovery TGA • Parameters: Ramp 10° C. per minute, 25 to 300° C., 50 mL/min N2 sweep Differential scanning calorimetry (DSC) • Instrument: TA Instruments Discovery DSC • Parameters: Ramp 10° C. per minute, up to 300° C. Polarized light microscopy (PLM) • Instrument: Nikon Eclipse Ci POL • Camera: Nikon DS-Fi3 • Software: Nikon NIS Elements
Slurry at 50° C.—About 40 mg API was suspended and stirred in different solvents in 4 mL vials at 50° C. The solids in the slurry were characterized by XRPD after 3 days (Table 34).

CCN(C(=O)c1cc(F)ccc1Oc1cncnc1N1CC2(CCN(C[C@H]3CC[C@H](NS(=O)(=O)CC)CC3)CC2)C1)C(C)C [Compound A monocitrate monohydrate]
solubility ([1]; aqueous with cosolvent or surfactant or cyclodextrin, 1,4-dioxane/water (7/3), heated for few seconds using heat gun): 84 to 105 mg/mL
solubility ([1]; aqueous with cosolvent or surfactant or cyclodextrin, 1-PrOH/water (1/1), heated for few seconds using heat gun): 161 to 242 mg/mL
solubility ([1]; aqueous with cosolvent or surfactant or cyclodextrin, Acetone/H2O (9:1 v/v), RT): 15 to 17.5 mg/mL
solubility ([1]; aqueous with cosolvent or surfactant or cyclodextrin, MeOH/water (7/3), heated for few seconds using heat gun): 93 to 186 mg/mL
solubility ([1]; aqueous with cosolvent or surfactant or cyclodextrin, THF/water (1/1), heated for few seconds using heat gun): 141 to 212 mg/mL
solubility ([1]; organic solvent or mixture, 2-MeTHF, RT): < 2.9 mg/mL
solubility ([1]; organic solvent or mixture, Anisole, RT): < 3 mg/mL
solubility ([1]; organic solvent or mixture, Benzene, RT): < 2.9 mg/mL
solubility ([1]; organic solvent or mixture, CPME, RT): < 2.1 mg/mL
solubility ([1]; organic solvent or mixture, Chloroform, RT): < 2.3 mg/mL
solubility ([1]; organic solvent or mixture, Cyclohexane, RT): < 2.3 mg/mL
solubility ([1]; organic solvent or mixture, DMA, RT): 81 to 162 mg/mL
solubility ([1]; organic solvent or mixture, DMF, RT): 80 to 160 mg/mL
solubility ([1]; organic solvent or mixture, Diethylamine, RT): 170 to 340 mg/mL
solubility ([1]; organic solvent or mixture, Diisopropyl ether, RT): < 2.3 mg/mL
solubility ([1]; organic solvent or mixture, Dimethoxyethane (DME), RT): < 2.4 mg/mL
solubility ([1]; organic solvent or mixture, EtOAc, RT): < 2.3 mg/mL
solubility ([1]; organic solvent or mixture, Heptane, RT): < 2.8 mg/mL
solubility ([1]; organic solvent or mixture, IPA, RT): < 2.8 mg/mL
solubility ([1]; organic solvent or mixture, MEK, RT): < 2.4 mg/mL
solubility ([1]; organic solvent or mixture, MTBE, RT): < 2.8 mg/mL
solubility ([1]; organic solvent or mixture, NMP, RT): 120 to 240 mg/mL
solubility ([1]; organic solvent or mixture, Propylene glycol, heated for few seconds using heat gun): 22.2 to 27.8 mg/mL
solubility ([1]; organic solvent or mixture, THF, RT): < 2 mg/mL
reaction of counterion with the pyrimidine ring of Compound A (degradation) [2]: does not react with the pyrimidine ring of Compound A
Crystal Form ([3]; 1-propanol): Form A
Crystal Form ([3]; 2-MeTHF): Form A
Crystal Form ([3]; ACN 9:1): Form A
Crystal Form ([3]; Anisole): Form A
Crystal Form ([3]; Cyclohexane): Form A
Crystal Form ([3]; Dimethoxyethane): Form A
Crystal Form ([3]; Ethyl acetate/MeOH 3:1): Form A
Crystal Form ([3]; Heptane): Form A
Crystal Form ([3]; IPAc): Form A
Crystal Form ([3]; MEK): Form A
Crystal Form ([3]; MTBE): Form A
Crystal Form ([3]; Methyl Acetate): Form A
Crystal Form ([3]; NMP:CPME (3:7 v/v)): Form A
Crystal Form ([3]; Propylene glycol:Acetone 1:1): Form A
Crystal Form ([3]; Propylene glycol:IPA 1:1): Form A
Crystal Form ([3]; THF 9:1): Form A
Crystal Form ([3]; Toluene): Form A
